The record followed here is PubChem BioAssay (NCI).

Among the test systems are OVCAR-8 ovarian; HCT-15 colon; NCI/ADR-RES ovarian; SK-MEL-2 melanoma; SW-620 colon; RXF 393 renal; UACC-257 melanoma; K-562 leukemia; RPMI-8226 leukemia; T-47D breast.
Common to all, as to experiment: inhibition of tumour cell growth, NCI panel, 48 h

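A five-concentration, 48-hour dose response in 96-well plates underlies each endpoint, interpolated linearly between surrounding concentrations. GI50 is the concentration that inhibits growth by half. TGI marks complete inhibition of growth.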

As to `CCN(CC)CCNc1ccc(C)c2sc3cc(Cl)ccc3c(=O)c12`, the GI50 in the assay with OVCAR-8 ovarian was 1.9 µM; in the assay with HCT-15 colon, 1500 nM; in the assay on NCI/ADR-RES ovarian it was 1.62 µM; in the assay on SK-MEL-2 melanoma it was 1880 nM; in the assay with SW-620 colon, 1860 nM; in the assay on RXF 393 renal, 1570 nM. In addition, the GI50 in the assay with UACC-257 melanoma was 1.92 µM; in the assay with K-562 leukemia, 1640 nM; in the assay on RPMI-8226 leukemia, 1790 nM; with T-47D breast, 1650 nM. The TGI in the assay on OVCAR-8 ovarian worked out at 3.49 µM; with HCT-15 colon, 3.12 µM; with NCI/ADR-RES ovarian, 3.23 µM; in the assay on SK-MEL-2 melanoma, 3.72 µM; in the assay with SW-620 colon it was 3.6 µM; in the assay on RXF 393 renal, 3.05 µM. Besides, the TGI with UACC-257 melanoma amounted to 3.42 µM; in the assay on K-562 leukemia, 3.44 µM; with RPMI-8226 leukemia it was 3.86 µM; in the assay on T-47D breast, 4.02 µM.
With `COc1ccc(C(=O)Nc2ncc(Cc3cccc(Cl)c3)s2)cc1OC`, the GI50 in the assay on OVCAR-8 ovarian is 1.56 µM; with HCT-15 colon, 63.1 nM; with NCI/ADR-RES ovarian it was 0.398 µM; in the assay with SK-MEL-2 melanoma it was 557 nM; with SW-620 colon it was 56.7 nM; in the assay on RXF 393 renal, 1070 nM. The GI50 in the assay on UACC-257 melanoma was 0.566 µM; in the assay on RPMI-8226 leukemia, 474 nM; in the assay on T-47D breast it was 169 nM. Also, the TGI with OVCAR-8 ovarian is above 100 µM; in the assay with HCT-15 colon, above 100 µM; in the assay on NCI/ADR-RES ovarian it was above 100 µM; in the assay on SK-MEL-2 melanoma, above 100 µM; with SW-620 colon, above 100 µM; in the assay with RXF 393 renal, 6.54 µM. Further, the TGI was above 100 µM in the assay with UACC-257 melanoma, above 100 µM with K-562 leukemia, 8.23 µM with RPMI-8226 leukemia and above 100 µM in the assay with T-47D breast.
`CC1(C)N=C(N)N=C(N)N1c1ccc(CCCCc2ccccc2)c(Cl)c1`: the GI50 in the assay on OVCAR-8 ovarian was 0.0606 µM; with HCT-15 colon it was 522 nM; in the assay on NCI/ADR-RES ovarian it was 6.74 µM; with SK-MEL-2 melanoma, 39.4 nM; in the assay with SW-620 colon it was below 10 nM; in the assay with RXF 393 renal, 334 nM. Further, the GI50 in the assay with UACC-257 melanoma is 0.247 µM; with K-562 leukemia, 25.6 nM; in the assay on RPMI-8226 leukemia it was 127 nM; in the assay on T-47D breast it was 499 nM. Further, the TGI in the assay on OVCAR-8 ovarian is above 39.7 µM; in the assay with HCT-15 colon, 35.5 µM; in the assay on NCI/ADR-RES ovarian it was above 100 µM; in the assay on SK-MEL-2 melanoma it was 12.4 µM; with SW-620 colon, 5.97 µM; with RXF 393 renal, 7.79 µM. Moreover, the TGI in the assay on UACC-257 melanoma was 5.26 µM; in the assay with K-562 leukemia, above 51.2 µM; with RPMI-8226 leukemia, 11.6 µM; in the assay on T-47D breast it was 12.8 µM.
`C=C(C)[C@@H]1CC[C@]2(COCCC#N)CC[C@]3(C)[C@H](CC[C@@H]4[C@@](C)(CCCNCCC#N)[C@H](C(=C)C)CC[C@]43C)[C@@H]12`: the GI50 in the assay on OVCAR-8 ovarian was 12.1 µM; in the assay with HCT-15 colon it was 7660 nM; in the assay with NCI/ADR-RES ovarian it was 20.7 µM; in the assay on SK-MEL-2 melanoma, 10700 nM; with SW-620 colon it was 11500 nM; with RXF 393 renal it was 7440 nM. In addition, the GI50 is 19.8 µM in the assay with UACC-257 melanoma, 8940 nM in the assay with K-562 leukemia, 10700 nM in the assay on RPMI-8226 leukemia and 8710 nM in the assay on T-47D breast. Besides, the TGI in the assay on OVCAR-8 ovarian was 31.8 µM; in the assay with HCT-15 colon it was 16.6 µM; with NCI/ADR-RES ovarian, above 50 µM; in the assay on SK-MEL-2 melanoma, 25.4 µM; in the assay on SW-620 colon, 31.2 µM; in the assay with RXF 393 renal it was 14.5 µM. In addition, the TGI is above 50 µM in the assay on UACC-257 melanoma, 31.6 µM in the assay with K-562 leukemia, 31.4 µM in the assay on RPMI-8226 leukemia and above 50 µM in the assay with T-47D breast.
In the case of `Cc1ccc(NC(=O)c2ccc(CN3CCN(C)CC3)cc2)cc1Nc1nccc(-c2cccnc2)n1`, the GI50 in the assay with OVCAR-8 ovarian was 27 µM; in the assay with HCT-15 colon, 16200 nM; in the assay with NCI/ADR-RES ovarian it was 23.8 µM; in the assay with SK-MEL-2 melanoma it was 22100 nM; in the assay on SW-620 colon, 24300 nM; with RXF 393 renal, 14200 nM. Further, the GI50 in the assay with UACC-257 melanoma is 17.1 µM; in the assay on K-562 leukemia, 41.4 nM; in the assay with RPMI-8226 leukemia it was 7560 nM; with T-47D breast, 16900 nM. Also, the TGI in the assay on OVCAR-8 ovarian is above 89.9 µM; in the assay on HCT-15 colon, 80.5 µM; with NCI/ADR-RES ovarian, 68.3 µM; in the assay with SK-MEL-2 melanoma, 54.8 µM; in the assay with SW-620 colon, 54.7 µM; in the assay on RXF 393 renal it was 33.3 µM. Moreover, the TGI with UACC-257 melanoma is 38.5 µM; with K-562 leukemia, 3.72 µM; with RPMI-8226 leukemia it was 28.1 µM; with T-47D breast, 49.6 µM.
On to `CCOC(=O)c1ccc(Nc2sc(C(=O)c3ccc(Br)cc3)c(N)c2C#N)cc1`, for which the GI50 with OVCAR-8 ovarian was 6.91 µM; in the assay with HCT-15 colon it was 662 nM; with NCI/ADR-RES ovarian, 0.842 µM; with SK-MEL-2 melanoma, 1270 nM; with SW-620 colon, 584 nM; with RXF 393 renal, 1780 nM. For the same compound, the GI50 in the assay on UACC-257 melanoma is 6.19 µM; with K-562 leukemia it was 513 nM; in the assay on RPMI-8226 leukemia, 2570 nM; with T-47D breast it was 2850 nM. The TGI in the assay with OVCAR-8 ovarian, in the assay with HCT-15 colon, with NCI/ADR-RES ovarian, with SK-MEL-2 melanoma, in the assay on SW-620 colon and with RXF 393 renal was above 100 µM in each case. The TGI in the assay with UACC-257 melanoma was above 100 µM; in the assay on K-562 leukemia, above 100 µM; with RPMI-8226 leukemia, above 72.3 µM; with T-47D breast it was above 100 µM.
As for `Cc1cc(Nc2ccc(OCc3ccccc3)cc2)nc2cc(O)ccc12`, the GI50 in the assay on OVCAR-8 ovarian was 12.4 µM; in the assay with HCT-15 colon, 2160 nM; in the assay on NCI/ADR-RES ovarian, 5.93 µM; in the assay on SK-MEL-2 melanoma, 11900 nM; in the assay on SW-620 colon, 5120 nM; with RXF 393 renal, 2950 nM. Also, the GI50 in the assay on UACC-257 melanoma is 3.49 µM; with K-562 leukemia it was 1090 nM; with RPMI-8226 leukemia, 2500 nM; in the assay with T-47D breast it was 5930 nM. Further, the TGI was found to be 29.5 µM with OVCAR-8 ovarian; 5.48 µM with HCT-15 colon; 19.8 µM in the assay with NCI/ADR-RES ovarian; 30.1 µM with SK-MEL-2 melanoma; 19.4 µM in the assay with SW-620 colon; 12.1 µM with RXF 393 renal. The TGI was found to be 13.5 µM with UACC-257 melanoma, 14.9 µM in the assay on K-562 leukemia, 8.33 µM with RPMI-8226 leukemia and 23.2 µM in the assay with T-47D breast.
